Assay results from patent US20060008880A1, “Mouse trace amine associated receptors and polypeptides” (priority 2004, published 2006).

These molecules were tested against Mouse TAAR 1 (Mus musculus, UniProt Q923Y8) (assay: cAMP Biotrak EIA functional assay in HEK293 cells stably expressing mTAAR1). Settings: not given.
Mouse TAAR 1, sequence (Q923Y8 whole entry): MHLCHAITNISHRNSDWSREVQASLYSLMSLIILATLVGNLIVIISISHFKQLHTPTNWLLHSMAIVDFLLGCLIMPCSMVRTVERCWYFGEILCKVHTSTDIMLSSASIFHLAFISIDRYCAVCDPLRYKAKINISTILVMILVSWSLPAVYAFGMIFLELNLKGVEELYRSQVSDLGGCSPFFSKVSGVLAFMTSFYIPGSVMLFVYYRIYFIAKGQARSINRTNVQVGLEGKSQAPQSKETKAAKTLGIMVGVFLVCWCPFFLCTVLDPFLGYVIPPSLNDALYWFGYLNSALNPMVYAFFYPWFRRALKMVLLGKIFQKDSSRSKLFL
Format: cell-based
Source text: Stable cell lines: For the generation of stably transfected cell lines HEK cells were transfected with the pIRES-NEO2 expression vectors of the respective TAARs by using Lipofectamin 2000 transfection reagent and Optimem 1 reduced serum medium with Glutamax (Invitrogen Cat. # 51985-026) following the recommendations given in the Lipofectamine 2000 datasheet. After 24 hr post transfection cells were trypsinated and transferred into 90 mm tissue culture dishes (Nunc) at dilutions between 1:10-1:300 in culture medium supplemented with 1 mg/ml G418 which was renewed on a daily basis. […] Picking of clones was performed by detaching the entire clone from the culture dish using a 1 ml Gilson pipette, trypsinizing the clone in a 1.5 ml Eppendorf cup using Trypsin/EDTA (Invitrogen Cat. # 25300-062) and plating them into a 48 well dish, from where the cells were subsequently expanded by transferring them to increasing culture surface areas (48 well—12 well—60 mm etc.). Whenever cells were transferred to a new plate they were carefully trypsinized. As soon as single clones were selected, the concentration of G418 in the culture medium was reduced to 500 µg/ml.
Work on NCCc1c[nH]c2ccc(O)cc12 [Serotonin, 5-HT, Serotonin] yielded an EC50 greater than 50 µM.
Molecule NCCc1ccccc1 [β-PEA, β-phenylethylamine] has an EC50 of 0.66 µM.
NCCc1c[nH]c2ccccc12 [TRY, tryptamine] showed an EC50 of 1.99 µM.

Same assay, conditions: maximal response as percentage of the maximal cAMP levels induced by p-TYR; HEK293 cells stably expressing mTAAR1
NCC(O)c1ccc(O)cc1 (stereo not drawn) [OCT, octopamine] was tested, and the “Max (96)” value was 100 percentage.

Same assay, conditions: read-out: EC50
NC[C@H](O)c1ccc(O)c(O)c1 [Norepinephrine, norepinephrine] showed an EC50 greater than 50 µM.
NCC(O)c1ccc(O)cc1 (stereo not drawn) [OCT, octopamine] showed an EC50 of 19.7 µM.
For CNCCc1ccccc1 [N-methyl-β-PEA], the EC50 was 0.15 µM.
With NCCc1c[nH]cn1 [Histamine, histamine] the EC50 was greater than 50 µM.
For NCCc1ccc(O)c(O)c1 [Dopamine, dopamine], the EC50 was 11.8 µM.
